Test results as given in patent US20070155772A1, “Use of genetic polymorphisms that associate with efficacy of treatment of inflammatory disease” (priority 2003, published 2007).
Values joined by “and” are separate entries in the source; they are usually repeats but may differ in a detail not shown here. Equal entries are not always repeated.

Assays:
[1] = tested on: pediatric subjects with moderate atopic dermatitis; experiment: Phase IIIb trial, efficacy by Investigator global assessment (IGA) score on day 43; assay type: in vivo, human; details: for Efficacy (IGA): number of patients that experienced efficacy / Efficacy (IGA): percent of patients that experienced efficacy: IGA score of 0 or 1 on day 43
Excerpt: The genetic locus was identified in a Phase IIIb trial that was designed as a head to head comparison of pimecrolimus cream 1% and tacrolimus ointment 0.03%. The six-week investigator-blinded trial of pediatric subjects with moderate atopic dermatitis explored the incidence of local application site reactions induced by the two topical macrolactams, as well as their efficacy, safety and cosmetic acceptability. Blood samples for pharmacogenetic analysis were collected from consenting participants in the clinical trial, to define a genetic basis for response to either treatment. Statistical analysis. Investigator global assessment (IGA) scores were used as the primary marker of efficacy in the pharmacogenetic studies. IGA scores at the end of the Investigator Blinded phase of the trial (Day 43) were used as the main time-point for comparison. Last observation carried forward imputations were only required for one subject at day 43. In this case, there was no IGA score available after Day 29, and the score on this day was used in place of a day 43 IGA score. IGA scores were re-coded, as was done to assess efficacy in the trial itself. An IGA score of 0 or 1 was considered successful treatment and IGA scores of 2-5 were counted as treatment failure. The severity of pruritus was also used as a marker of efficacy. Pruritus scores were dichotomized into absence (score=0) or presence (score=1, 2 or 3) of pruritus. The fisher's exact model was employed to examine the genotype effect on each efficacy variable. All statistical analyses were done using SAS version 8.2 software.

[2] = tested on: pediatric subjects with moderate atopic dermatitis; experiment: Phase IIIb trial, severity of pruritus score on day 43; assay type: in vivo, human
Excerpt: The genetic locus was identified in a Phase IIIb trial that was designed as a head to head comparison of pimecrolimus cream 1% and tacrolimus ointment 0.03%. The six-week investigator-blinded trial of pediatric subjects with moderate atopic dermatitis explored the incidence of local application site reactions induced by the two topical macrolactams, as well as their efficacy, safety and cosmetic acceptability. Blood samples for pharmacogenetic analysis were collected from consenting participants in the clinical trial, to define a genetic basis for response to either treatment.
Statistical analysis. Investigator global assessment (IGA) scores were used as the primary marker of efficacy in the pharmacogenetic studies. IGA scores at the end of the Investigator Blinded phase of the trial (Day 43) were used as the main time-point for comparison. Last observation carried forward imputations were only required for one subject at day 43. In this case, there was no IGA score available after Day 29, and the score on this day was used in place of a day 43 IGA score. IGA scores were re-coded, as was done to assess efficacy in the trial itself. An IGA score of 0 or 1 was considered successful treatment and IGA scores of 2-5 were counted as treatment failure. The severity of pruritus was also used as a marker of efficacy. Pruritus scores were dichotomized into absence (score=0) or presence (score=1, 2 or 3) of pruritus. The fisher's exact model was employed to examine the genotype effect on each efficacy variable. All statistical analyses were done using SAS version 8.2 software.
Association between polymorphic markers and relief from pruritus. A secondary efficacy variable used in the trial was pruritus. An analysis was done to see if ASN60THR LTA and (−1031) TNF associated with this efficacy variable (assessed on day 43).

[3] = (−1031) TNF genotype CC, day 43
[4] = (−1031) TNF genotype CT, day 43
[5] = (−1031) TNF genotype TT, day 43
[6] = ASN60THR LTA genotype AA, day 43
[7] = ASN60THR LTA genotype AC, day 43
[8] = ASN60THR LTA genotype CC, day 43
[9] = all (−1031) TNF genotypes, day 43
[10] = all ASN60THR LTA genotypes, day 43
[11] = patients with a C allele (CC or CT) at (−1031) TNF, day 43

Q: How did the “No success (IGA ≧ 2), number of individuals” value [1, 3] turn out when `CC[C@@H]1/C=C(\C)C[C@H](C)C[C@H](OC)[C@H]2O[C@@](O)(C(=O)C(=O)N3CCCC[C@H]3C(=O)O[C@H](/C(C)=C/[C@@H]3CC[C@H](Cl)[C@H](OC)C3)[C@H](C)[C@@H](O)CC1=O)[C@H](C)C[C@@H]2OC` [pimecrolimus] was run?
A: The value was 1.

Q: What about the “No success (IGA ≧ 2), percent” value [1, 3] of the same compound?
A: The value was 100%.

Q: And the “Success (IGA = 0 or 1), number of individuals” value [1, 3]?
A: Its value is 0 (0%).

Q: And the “Success (IGA = 0 or 1), percent” value [1, 3]?
A: Its value is 0 (0%).

Q: What about the “No success (IGA ≧ 2), number of individuals” value [1, 4] of the same compound?
A: Its value is 9.

Q: And the “No success (IGA ≧ 2), percent” value [1, 4]?
A: Its value is 100%.

Q: What about the “Success (IGA = 0 or 1), number of individuals” value [1, 4] of the same compound?
A: Its value is 0.

Q: And the “Success (IGA = 0 or 1), percent” value [1, 4]?
A: Its value is 100%.

Q: And the “No success (IGA ≧ 2), number of individuals” value [1, 5]?
A: Its value is 4.

Q: And the “No success (IGA ≧ 2), percent” value [1, 5]?
A: Its value is 33%.

Q: What about the “Success (IGA = 0 or 1), number of individuals” value [1, 5] of the same compound?
A: Its value is 8.

Q: What about the “Success (IGA = 0 or 1), percent” value [1, 5] of the same compound?
A: The value was 67%.

Q: And the “No success (IGA ≧ 2), number of individuals” value [1, 6]?
A: Its value is 0 (0%).

Q: And the “No success (IGA ≧ 2), percent” value [1, 6]?
A: Its value is 0 (0%).

Q: What about the “Success (IGA = 0 or 1), number of individuals” value [1, 6] of the same compound?
A: Its value is 3/3 and 3.

Q: And the “Success (IGA = 0 or 1), percent” value [1, 6]?
A: Its value is 100%.

Q: And the “No success (IGA ≧ 2), number of individuals” value [1, 7]?
A: Its value is 6.

Q: And the “No success (IGA ≧ 2), percent” value [1, 7]?
A: The value was 60%.

Q: What about the “Success (IGA = 0 or 1), number of individuals” value [1, 7] of the same compound?
A: The value was 4/10 and 4.

Q: What about the “Success (IGA = 0 or 1), percent” value [1, 7] of the same compound?
A: The value was 40%.

Q: What about the “No success (IGA ≧ 2), number of individuals” value [1, 8] of the same compound?
A: The value was 8.

Q: What about the “No success (IGA ≧ 2), percent” value [1, 8] of the same compound?
A: The value was 89%.

Q: What about the “Success (IGA = 0 or 1), number of individuals” value [1, 8] of the same compound?
A: Its value is 1.

Q: And the “Success (IGA = 0 or 1), percent” value [1, 8]?
A: Its value is 11%.

Q: And the “No success (IGA ≧ 2), number of individuals” value ([1]; LTB (TWT#128095) genotype AC)?
A: The value was 0.

Q: What about the “No success (IGA ≧ 2), percent” value ([1]; LTB (TWT#128095) genotype AC) of the same compound?
A: The value was 50%.

Q: And the “Success (IGA = 0 or 1), number of individuals” value ([1]; LTB (TWT#128095) genotype AC)?
A: The value was 1.

Q: And the “Success (IGA = 0 or 1), percent” value ([1]; LTB (TWT#128095) genotype AC)?
A: The value was 100%.

Q: And the “No success (IGA ≧ 2), number of individuals” value ([1]; LTB (TWT#128095) genotype CC)?
A: Its value is 12.

Q: And the “No success (IGA ≧ 2), percent” value ([1]; LTB (TWT#128095) genotype CC)?
A: Its value is 63%.

Q: And the “Success (IGA = 0 or 1), number of individuals” value ([1]; LTB (TWT#128095) genotype CC)?
A: The value was 7.

Q: And the “Success (IGA = 0 or 1), percent” value ([1]; LTB (TWT#128095) genotype CC)?
A: The value was 37%.

Q: What about the “Efficacy (IGA): number of patients that experienced efficacy” value ([1]; Pharmacogenomics samples) of the same compound?
A: Its value is 8.

Q: What about the “Efficacy (IGA): percent of patients that experienced efficacy” value ([1]; Pharmacogenomics samples) of the same compound?
A: The value was 36%.

Q: What about the “Efficacy (IGA): number of patients that experienced efficacy” value ([1]; Trial subjects) of the same compound?
A: The value was 22.

Q: What about the “Efficacy (IGA): percent of patients that experienced efficacy” value ([1]; Trial subjects) of the same compound?
A: The value was 32%.

Q: And the “No success (IGA ≧ 2), number of individuals, Total” value (“No success … Total” for short) [1, 9]?
A: The value was 14.

Q: And the “Success (IGA = 0 or 1), number of individuals, Total” value [1, 9]?
A: The value was 8.

Q: What about the “No success … Total” value [1, 10] of the same compound?
A: The value was 13.

Q: What about the “Success (IGA = 0 or 1), number of individuals, Total” value [1, 10] of the same compound?
A: Its value is 7.

Q: What about the “No success … Total” value ([1]; all LTB (TWT#128095) genotypes) of the same compound?
A: The value was 12.

Q: And the “Success (IGA = 0 or 1), number of individuals, Total” value ([1]; all LTB (TWT#128095) genotypes)?
A: The value was 8.

Q: What about the “subjects that responded to treatment (IGA)” value [1, 11] of the same compound?
A: The value was “None and No patient”.

Q: And the “success / response rate (IGA)” value [1, 11]?
A: The value was 0%.

Q: What about the “Pruritus (day 43) score 0, percent of subjects” value ([2]; Pharmacogenomics samples) of the same compound?
A: The value was 10%.

Q: What about the “Pruritus (day 43) score 1, number of subjects” value ([2]; Pharmacogenomics samples) of the same compound?
A: Its value is 14.

Q: And the “Pruritus (day 43) score 1, percent of subjects” value ([2]; Pharmacogenomics samples)?
A: The value was 67%.

Q: What about the “Pruritus (day 43) score 2, number of subjects” value ([2]; Pharmacogenomics samples) of the same compound?
A: The value was 3.

Q: What about the “Pruritus (day 43) score 2, percent of subjects” value ([2]; Pharmacogenomics samples) of the same compound?
A: The value was 14%.

Q: What about the “Pruritus (day 43) score 3, number of subjects” value ([2]; Pharmacogenomics samples) of the same compound?
A: The value was 2.

Q: What about the “Pruritus (day 43) score 3, percent of subjects” value ([2]; Pharmacogenomics samples) of the same compound?
A: Its value is 10%.

Q: What about the “Pruritus (day 43) score 0, number of subjects” value ([2]; Trial subjects) of the same compound?
A: Its value is 9.

Q: And the “Pruritus (day 43) score 0, percent of subjects” value ([2]; Trial subjects)?
A: Its value is 13%.

Q: And the “Pruritus (day 43) score 1, number of subjects” value ([2]; Trial subjects)?
A: The value was 35.

Q: What about the “Pruritus (day 43) score 1, percent of subjects” value ([2]; Trial subjects) of the same compound?
A: Its value is 49%.

Q: What about the “Pruritus (day 43) score 2, number of subjects” value ([2]; Trial subjects) of the same compound?
A: Its value is 15.

Q: What about the “Pruritus (day 43) score 2, percent of subjects” value ([2]; Trial subjects) of the same compound?
A: Its value is 21%.

Q: And the “Pruritus (day 43) score 3, number of subjects” value ([2]; Trial subjects)?
A: Its value is 10.

Q: And the “Pruritus (day 43) score 3, percent of subjects” value ([2]; Trial subjects)?
A: The value was 14%.
